# Measured values from patent publication US9422238B2, “ICMT inhibitors” (National University of Singapore, priority 2012, dated 2016).
# pIC50: −log10 of the molar value. Several values for one entry are separate records, joined by “and”; a condition that tells them apart may be missing. Equal entries are not always repeated. Where two headings read alike, the source gives them in different places.
# Columns and labels:
# physchem = details: for solubility at 24 h: 25 °C; for solubility at 24 h / solubility / solubility at 3 h: pH 7.4, aqueous buffer, kinetic from dmso stock
# Procedure: The turbid solution was delivered to the filter plate, agitated for a specific time period and then filtered. The concentration of dissolved compound in the filtrate was determined by uv spectroscopy and referred to pre-constructed calibration curves for solubility determination.
# (§1) Determination of aqueous solubility was carried out on Multiscreen® Solubility filter plates (Millipore-MSSLBPC10) from Millipore Corporation (MA, USA). The protocol (PC2445EN00, Millipore Corporation) was followed. Briefly, various concentrations of the test compound were prepared in Universal buffer (pH 7.4)/acetonitrile/DMSO. The UV absorbances of these solutions were obtained at a pre-determined wavelength and used to construct a calibration curve for the test compound. Next, a stock solution of the test compound in DMSO was prepared at a known concentration, diluted with Universal buffer (pH 7.4), dispensed into wells in the Multiscreen Solubility filter plate, and agitated for a period of time. The suspension is then filtered, the filtrate collected and diluted with acetonitrile to give the same solvent composition used to prepare the calibration solutions. The absorbance of the diluted filtrate was then read at the predetermined wavelength and the concentration of the filtrate (taken here to be equivalent to the solubility of the test compound) was determined from the calibration curve.
# as §1, with “24 hours at room temperature (25 deg C.). […]” for “a period of time.”, “was” for “is then”, “was” for “was then”, “(equivalent” for “(taken here to be equivalent”, “curve. […] LCMS determinations were made on an Agilent 1200 Series HPLC linked to a AB Sciex Instruments 3200 Q TRAP LC/MS/MS. Separations were carried out on a Phenomenex Luna column [3u, C18(2), 100A, 5×4.6 mm]. […] Quantification was based on the ratio of peak areas of the daughter ion and the mother ion (M+H), normalized against the same ratio obtained for the internal standard. The solubility determinations were carried out in triplicates or more from two different stock solutions.” for “curve.”
# [1] = biological target: T1, Isoprenylcysteine carboxyl methyltransferase (Icmt) (Homo sapiens, UniProt O60725); assay: Icmt inhibition, scintillation proximity assay with BFC and [3H]SAM; assay type: biochemical; details: for pIC50: read-out: IC50 Icmt
# T1 construct: made in house; host or cells: Sf9 (Spodoptera frugiperda) insect cells; membrane preparation provided by Prof PJ Casey (Duke University / Duke-NUS)
# T1 sequence (O60725 whole entry, species assumed): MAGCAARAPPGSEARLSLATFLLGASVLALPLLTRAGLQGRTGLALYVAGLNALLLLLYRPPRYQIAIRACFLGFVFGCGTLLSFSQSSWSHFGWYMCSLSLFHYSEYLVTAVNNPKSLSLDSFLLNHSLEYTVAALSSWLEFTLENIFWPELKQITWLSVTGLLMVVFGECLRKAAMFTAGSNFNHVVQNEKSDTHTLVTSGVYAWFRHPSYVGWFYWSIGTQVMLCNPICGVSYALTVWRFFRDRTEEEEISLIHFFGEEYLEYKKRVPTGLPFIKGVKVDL
# Procedure: Isoprenylcysteine carboxyl methyltransferase (Icmt) was provided by Prof PJ Casey of Duke University, NC. S-Adenosylmethionine (SAM), magnesium chloride Hexahydrate (MgCl2), tartrazine, 4-(2-hydroxyethyl)-1-piperazineethanesulfonic acid (HEPES), dimethyl sulfoxide (DMSO) and dithiotreitol (DTT) were purchased from Sigma (Mo, USA). [^3H] S-Adenosylmethionine, [^3H] Biotin and Streptavidin PVT SPA Beads were purchased from PerkinElmer (Waltham, Mass.). Assays were performed in black small volume 384 well microtitre plates from PerkinElmer.
# Stocks of Icmt membrane protein (30 μg/μL) stored at −80° C. were thawed at 37° C. and placed on ice. The Icmt membrane protein was diluted in assay buffer (70 mM HEPES, 100 mM NaCl, 5 mM Mg Cl2 and 3 mM DTT, pH 7.5) to a 0.03 μg/μL working concentration and added to the wells of a microtitre plate (5 μl/well). To each wells 20 μl of the reaction buffer was added. The reaction was initiated with the addition of 5 μL of substrate solution containing BFC (6 μM), SAM (3 μM) and 30 μCi/mL [^3H] SAM (all of these reagents were stored at −20° C., SAM reagents thawed on ice, BFC thawed at RT). The plate was incubated at 37° C. for 30 minutes. The reaction was stopped with the addition of 15 μL of stop solution containing SAM (150 μM) and Streptavidin SPA beads (20 mg/mL). Following overnight incubation at ambient temperature radioactivity was counted on a Microbeta Trilux™ (Perkin Elmer, Turku, Finland).
# Sf9 (Spodoptera frugiperda ovarian) membranes containing recombinant Icmt were provided by Prof PJ Casey (Duke University, NC and Duke-NUS Graduate Medical School). S-Adenosylmethionine (SAM), magnesium chloride hexahydrate, tartrazine, 4-(2-hydroxyethyl)-1-piperazineethanesulfonic acid (HEPES) and dithiotreitol (DTT) were purchased from Sigma (Mo, USA). [^3H] S-Adenosylmethionine, [^3H] biotin and streptavidin PVT SPA Beads were purchased from PerkinElmer (Waltham, Mass.). Biotinylated farnesylcysteine was synthesized as described in an earlier report. Assays were performed in black 384-well microtitre plates from PerkinElmer.
# A vial of Icmt membrane protein (30 μg/μL) stored at −80° C. was thawed at 37° C. and placed on ice. The protein was diluted in assay buffer (70 mM HEPES, 100 mM NaCl, 5 mM MgCl2, 3 mM DTT, pH 7.5) to 0.03 μg/μL and aliquots were added to each well (5 μL/well), followed by 20 μL of the assay buffer. The reaction was initiated by adding 5 μL of a solution containing biotinylated BFC (6 μM), SAM (3 μM) and 30 μCi/mL [^3H] SAM. These reagents were stored at −20° C. and thawed on ice (SAM, [^3H] SAM) or at room temperature (BFC). The plate was incubated at 37° C. for 30 minutes after which the reaction was quenched by adding 15 μL of a solution comprising SAM (150 μM) and streptavidin SPA beads (20 mg/mL). After overnight incubation at ambient temperature, radioactivity was counted (Microbeta Trilux™, Perkin Elmer, Turku, Finland). The degree of inhibition was assessed from the radioactivity obtained in presence of test compound compared to that obtained from the control sample […]. Two independent determinations were made for each test compound.
# [2] = Table 3, mean of two or more determinations (SD)
Structure (SMILES),solubility at 24 h (physchem),"Aqueous Solubility (pH 7.4) 24 hours (physchem; 24 h, pH 7.4)",solubility (physchem),solubility at 3 h (physchem),"pIC50 [1, 2]","pIC50 ([1]; further testing, mean (SD))","Solubility (μM) (physchem; 24 h, pH 7.4)",fold higher IC50 Icmt than cysmethynil ([1]; ratio of IC50 Icmt)
"CCCCCCCCn1cc(CN(CC)CC)c2cc(-c3cnc(N)nc3)ccc21 [Compound 8-12, 5-(3-Diethylaminomethyl-1-octyl-1H-indol-5-yl)-pyrimidin-2-ylamine]",156 µM and 64 µg/mL,155.9 (6.4) μM,~65 µg/mL,166 µM,6.11,6.07,,
"CCCCCCCCn1c2c(c3cc(-c4cnc(N)nc4)ccc31)CN(C)CC2 [Compound 305, 8-(2′-amino-pyrimidin-5′-yl)-2-methyl-5-n-octyl-1,2,3,4-tetrahydropyrido[4,3-b]indole]",40.6 µM,,20 µg/mL,49.5 µM,5.48,,40.6 (1.75) μM,about 2
"CCCCCCCCn1cc(CC(N)=O)c2cc(-c3cccc(C)c3)ccc21 [Cysmethynil, 2-[5-(3-methylphenyl)-1-octyl-1H-indolo-3-yl]acetamide, reference compound]",< 1 µM,,,< 1 µM,5.74,5.72,,
